Experimental data as given in ChEMBL document CHEMBL3991601, “The target landscape of clinical kinase drugs” (Science, 2017).
Active and inactive are the calls of the source.

Assays:
Focal adhesion kinase 1 = Focal adhesion kinase 1 (Homo sapiens, UniProt Q05397)
[1] = target: Cell division cycle 7-related protein kinase (Homo sapiens, UniProt O00311)
[2] = target: Dual specificity testis-specific protein kinase 1 (Homo sapiens, UniProt Q15569)
[3] = target: Cyclin-dependent kinase 17 (Homo sapiens, UniProt Q00537)
Ephrin type-A receptor 1 = target: T1, Ephrin type-A receptor 1 (Homo sapiens, UniProt P21709)
T1 sequence (P21709 whole entry): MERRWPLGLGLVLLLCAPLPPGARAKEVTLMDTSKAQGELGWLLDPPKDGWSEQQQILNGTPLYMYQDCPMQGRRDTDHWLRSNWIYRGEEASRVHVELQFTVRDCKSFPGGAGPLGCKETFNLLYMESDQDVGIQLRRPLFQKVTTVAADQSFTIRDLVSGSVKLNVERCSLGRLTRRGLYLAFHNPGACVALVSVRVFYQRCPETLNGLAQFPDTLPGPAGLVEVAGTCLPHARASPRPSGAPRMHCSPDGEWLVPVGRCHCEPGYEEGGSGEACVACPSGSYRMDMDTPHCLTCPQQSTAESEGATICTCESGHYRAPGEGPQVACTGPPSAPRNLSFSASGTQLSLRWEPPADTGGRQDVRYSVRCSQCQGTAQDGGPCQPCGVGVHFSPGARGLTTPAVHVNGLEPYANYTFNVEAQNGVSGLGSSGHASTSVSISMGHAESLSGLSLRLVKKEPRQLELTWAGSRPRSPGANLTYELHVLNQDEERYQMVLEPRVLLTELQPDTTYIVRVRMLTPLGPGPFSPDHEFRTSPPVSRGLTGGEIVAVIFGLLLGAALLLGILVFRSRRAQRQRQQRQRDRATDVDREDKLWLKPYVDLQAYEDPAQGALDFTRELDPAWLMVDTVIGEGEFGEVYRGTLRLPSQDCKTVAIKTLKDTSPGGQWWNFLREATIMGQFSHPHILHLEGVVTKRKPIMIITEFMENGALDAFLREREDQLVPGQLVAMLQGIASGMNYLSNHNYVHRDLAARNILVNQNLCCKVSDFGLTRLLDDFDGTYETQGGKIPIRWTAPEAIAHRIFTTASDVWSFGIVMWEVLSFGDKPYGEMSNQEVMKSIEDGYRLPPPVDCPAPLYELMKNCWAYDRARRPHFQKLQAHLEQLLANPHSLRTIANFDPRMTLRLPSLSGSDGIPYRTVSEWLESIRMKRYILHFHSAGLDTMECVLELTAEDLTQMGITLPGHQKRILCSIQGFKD

[4] = target: Dual specificity protein kinase CLK4 (Homo sapiens, UniProt Q9HAZ1)
Sequence of Dual specificity protein kinase CLK4 (Q9HAZ1 whole entry): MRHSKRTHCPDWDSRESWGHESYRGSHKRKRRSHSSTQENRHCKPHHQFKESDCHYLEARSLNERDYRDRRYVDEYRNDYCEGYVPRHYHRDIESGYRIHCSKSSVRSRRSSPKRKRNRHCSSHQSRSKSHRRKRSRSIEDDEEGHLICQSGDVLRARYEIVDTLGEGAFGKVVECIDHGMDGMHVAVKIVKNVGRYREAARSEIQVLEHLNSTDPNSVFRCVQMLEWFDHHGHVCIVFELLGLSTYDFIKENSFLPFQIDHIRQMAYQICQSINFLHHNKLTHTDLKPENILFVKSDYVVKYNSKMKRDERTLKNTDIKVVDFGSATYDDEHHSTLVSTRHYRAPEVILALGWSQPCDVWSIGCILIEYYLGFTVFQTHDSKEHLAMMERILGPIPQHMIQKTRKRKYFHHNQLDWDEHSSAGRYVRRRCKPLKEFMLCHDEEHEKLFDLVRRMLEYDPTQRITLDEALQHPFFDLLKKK

[5] = target: T2, Receptor-type tyrosine-protein kinase FLT3 (Homo sapiens, UniProt P36888)
T2 sequence (P36888 whole entry): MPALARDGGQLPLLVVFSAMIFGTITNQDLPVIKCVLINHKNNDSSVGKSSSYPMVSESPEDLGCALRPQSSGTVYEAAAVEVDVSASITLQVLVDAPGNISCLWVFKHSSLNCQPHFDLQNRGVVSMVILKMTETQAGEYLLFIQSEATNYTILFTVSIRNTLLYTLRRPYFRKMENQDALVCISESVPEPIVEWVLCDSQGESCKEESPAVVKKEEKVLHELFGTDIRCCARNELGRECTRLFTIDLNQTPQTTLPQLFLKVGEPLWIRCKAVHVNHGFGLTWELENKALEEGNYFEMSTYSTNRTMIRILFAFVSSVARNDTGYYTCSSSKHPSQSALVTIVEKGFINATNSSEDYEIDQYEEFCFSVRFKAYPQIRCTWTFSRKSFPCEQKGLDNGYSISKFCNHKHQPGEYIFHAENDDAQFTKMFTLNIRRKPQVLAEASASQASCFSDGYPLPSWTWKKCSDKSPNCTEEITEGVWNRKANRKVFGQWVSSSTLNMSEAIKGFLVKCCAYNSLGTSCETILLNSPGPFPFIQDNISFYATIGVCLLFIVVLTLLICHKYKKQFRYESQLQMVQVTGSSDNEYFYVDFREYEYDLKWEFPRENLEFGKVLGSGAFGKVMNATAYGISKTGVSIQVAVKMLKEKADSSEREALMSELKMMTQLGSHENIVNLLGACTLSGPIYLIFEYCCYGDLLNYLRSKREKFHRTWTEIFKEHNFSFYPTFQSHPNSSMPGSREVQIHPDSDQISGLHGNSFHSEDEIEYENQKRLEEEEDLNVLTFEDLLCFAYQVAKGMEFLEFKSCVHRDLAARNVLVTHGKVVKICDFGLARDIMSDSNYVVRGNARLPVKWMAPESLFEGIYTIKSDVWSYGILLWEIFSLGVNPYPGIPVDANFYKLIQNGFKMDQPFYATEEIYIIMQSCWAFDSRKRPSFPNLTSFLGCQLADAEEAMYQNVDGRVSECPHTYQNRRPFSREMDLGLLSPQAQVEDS

[6] = target: Dual specificity protein kinase CLK3 (Homo sapiens, UniProt P49761); format: subcellular, K-562, COLO 205, SK-N-BE(2) and MV-4-11, Cell lysate; conditions: read-out: Kd apparent
Sequence of Dual specificity protein kinase CLK3 (P49761 whole entry): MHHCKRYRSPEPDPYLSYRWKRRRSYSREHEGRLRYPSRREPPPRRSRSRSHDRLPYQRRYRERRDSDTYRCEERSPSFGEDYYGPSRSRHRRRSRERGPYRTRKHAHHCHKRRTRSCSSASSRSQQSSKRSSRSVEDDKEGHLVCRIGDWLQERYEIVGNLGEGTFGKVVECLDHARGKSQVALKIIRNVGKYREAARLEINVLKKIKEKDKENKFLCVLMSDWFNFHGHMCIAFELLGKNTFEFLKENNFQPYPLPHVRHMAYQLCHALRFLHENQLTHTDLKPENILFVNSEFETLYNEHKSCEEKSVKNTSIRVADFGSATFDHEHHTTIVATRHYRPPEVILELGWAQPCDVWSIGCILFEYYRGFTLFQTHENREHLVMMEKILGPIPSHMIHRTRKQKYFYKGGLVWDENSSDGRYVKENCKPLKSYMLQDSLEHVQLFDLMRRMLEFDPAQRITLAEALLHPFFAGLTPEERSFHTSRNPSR

[7] = target: T3, Protein kinase C zeta type (Homo sapiens, UniProt Q05513)
T3 sequence (Q05513 whole entry): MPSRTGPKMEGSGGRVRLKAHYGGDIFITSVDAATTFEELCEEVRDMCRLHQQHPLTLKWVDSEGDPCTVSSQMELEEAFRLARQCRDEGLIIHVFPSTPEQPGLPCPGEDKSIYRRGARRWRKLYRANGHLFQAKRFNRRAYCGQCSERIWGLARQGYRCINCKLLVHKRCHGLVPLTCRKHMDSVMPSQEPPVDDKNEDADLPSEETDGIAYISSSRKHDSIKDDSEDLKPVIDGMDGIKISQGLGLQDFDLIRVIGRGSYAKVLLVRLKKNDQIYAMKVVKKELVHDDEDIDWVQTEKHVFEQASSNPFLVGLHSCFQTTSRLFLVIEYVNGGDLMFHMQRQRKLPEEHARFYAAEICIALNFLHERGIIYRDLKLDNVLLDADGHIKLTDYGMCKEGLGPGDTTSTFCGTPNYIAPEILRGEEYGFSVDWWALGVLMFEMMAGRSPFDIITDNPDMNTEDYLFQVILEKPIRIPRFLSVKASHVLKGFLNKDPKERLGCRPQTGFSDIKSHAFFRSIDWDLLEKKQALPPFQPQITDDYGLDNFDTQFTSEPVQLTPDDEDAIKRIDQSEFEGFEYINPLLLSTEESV

[8] = target: Epidermal growth factor receptor (Homo sapiens, UniProt P00533)
Sequence of Epidermal growth factor receptor (P00533 whole entry): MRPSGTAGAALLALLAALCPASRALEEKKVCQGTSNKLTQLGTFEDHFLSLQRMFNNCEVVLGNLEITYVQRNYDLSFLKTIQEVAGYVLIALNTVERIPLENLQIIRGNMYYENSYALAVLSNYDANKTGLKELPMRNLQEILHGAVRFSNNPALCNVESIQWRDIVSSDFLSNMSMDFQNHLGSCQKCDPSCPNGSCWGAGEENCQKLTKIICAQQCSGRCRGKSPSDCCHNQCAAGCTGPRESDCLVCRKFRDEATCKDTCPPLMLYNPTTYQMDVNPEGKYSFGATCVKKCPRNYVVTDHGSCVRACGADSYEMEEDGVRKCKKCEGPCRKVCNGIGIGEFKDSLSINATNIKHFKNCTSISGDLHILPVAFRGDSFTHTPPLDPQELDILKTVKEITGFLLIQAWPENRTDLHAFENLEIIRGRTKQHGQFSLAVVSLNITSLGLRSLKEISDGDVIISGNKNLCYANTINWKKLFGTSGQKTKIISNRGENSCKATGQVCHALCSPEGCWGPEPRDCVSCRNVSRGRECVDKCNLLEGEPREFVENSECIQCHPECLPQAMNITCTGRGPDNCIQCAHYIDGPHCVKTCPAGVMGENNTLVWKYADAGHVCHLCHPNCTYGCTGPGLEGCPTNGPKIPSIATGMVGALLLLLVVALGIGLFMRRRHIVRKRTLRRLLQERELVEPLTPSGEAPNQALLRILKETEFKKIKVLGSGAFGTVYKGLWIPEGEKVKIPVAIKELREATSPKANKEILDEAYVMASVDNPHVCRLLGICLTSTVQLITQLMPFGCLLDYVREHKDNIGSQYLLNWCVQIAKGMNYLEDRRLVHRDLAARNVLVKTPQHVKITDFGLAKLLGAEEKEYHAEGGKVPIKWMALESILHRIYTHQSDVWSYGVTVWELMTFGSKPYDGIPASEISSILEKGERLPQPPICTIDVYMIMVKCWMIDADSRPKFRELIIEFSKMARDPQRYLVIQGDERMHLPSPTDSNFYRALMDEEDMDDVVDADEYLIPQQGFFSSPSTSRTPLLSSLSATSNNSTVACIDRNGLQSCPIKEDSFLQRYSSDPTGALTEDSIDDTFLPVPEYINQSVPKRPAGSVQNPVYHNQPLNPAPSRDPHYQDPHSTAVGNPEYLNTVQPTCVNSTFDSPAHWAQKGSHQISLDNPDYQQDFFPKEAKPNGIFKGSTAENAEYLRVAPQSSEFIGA

[9] = target: MAP kinase-activated protein kinase 3 (Homo sapiens, UniProt Q16644)
Sequence of MAP kinase-activated protein kinase 3 (Q16644 whole entry): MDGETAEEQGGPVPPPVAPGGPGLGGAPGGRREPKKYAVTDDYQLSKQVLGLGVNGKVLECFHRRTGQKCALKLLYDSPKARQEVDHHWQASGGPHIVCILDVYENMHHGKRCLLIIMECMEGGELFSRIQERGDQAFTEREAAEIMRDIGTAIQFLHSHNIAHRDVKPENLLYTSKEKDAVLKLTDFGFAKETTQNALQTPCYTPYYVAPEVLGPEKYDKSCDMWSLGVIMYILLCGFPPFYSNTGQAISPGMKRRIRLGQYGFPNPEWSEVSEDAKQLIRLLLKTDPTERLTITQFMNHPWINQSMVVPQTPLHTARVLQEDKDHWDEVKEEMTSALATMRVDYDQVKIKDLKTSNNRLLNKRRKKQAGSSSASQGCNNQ
Further: in the data inactive means no Kd found up to 30 µM.

Sequence of Cell division cycle 7-related protein kinase (O00311 whole entry): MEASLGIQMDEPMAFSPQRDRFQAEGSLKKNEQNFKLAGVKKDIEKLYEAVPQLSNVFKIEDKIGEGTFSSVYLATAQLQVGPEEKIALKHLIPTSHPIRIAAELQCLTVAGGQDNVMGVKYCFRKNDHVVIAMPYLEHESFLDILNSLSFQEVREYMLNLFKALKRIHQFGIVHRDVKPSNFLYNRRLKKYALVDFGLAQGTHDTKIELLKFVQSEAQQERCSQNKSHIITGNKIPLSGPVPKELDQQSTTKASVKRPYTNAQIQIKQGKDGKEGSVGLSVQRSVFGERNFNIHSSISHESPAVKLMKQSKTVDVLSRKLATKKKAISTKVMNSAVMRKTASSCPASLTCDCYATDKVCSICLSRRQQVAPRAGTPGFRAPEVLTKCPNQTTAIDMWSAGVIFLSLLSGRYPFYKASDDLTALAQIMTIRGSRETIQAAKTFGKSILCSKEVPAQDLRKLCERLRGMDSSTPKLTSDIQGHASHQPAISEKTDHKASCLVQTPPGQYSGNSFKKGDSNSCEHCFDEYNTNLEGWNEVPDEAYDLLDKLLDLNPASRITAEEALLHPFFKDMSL
Sequence of Focal adhesion kinase 1 (Q05397 whole entry): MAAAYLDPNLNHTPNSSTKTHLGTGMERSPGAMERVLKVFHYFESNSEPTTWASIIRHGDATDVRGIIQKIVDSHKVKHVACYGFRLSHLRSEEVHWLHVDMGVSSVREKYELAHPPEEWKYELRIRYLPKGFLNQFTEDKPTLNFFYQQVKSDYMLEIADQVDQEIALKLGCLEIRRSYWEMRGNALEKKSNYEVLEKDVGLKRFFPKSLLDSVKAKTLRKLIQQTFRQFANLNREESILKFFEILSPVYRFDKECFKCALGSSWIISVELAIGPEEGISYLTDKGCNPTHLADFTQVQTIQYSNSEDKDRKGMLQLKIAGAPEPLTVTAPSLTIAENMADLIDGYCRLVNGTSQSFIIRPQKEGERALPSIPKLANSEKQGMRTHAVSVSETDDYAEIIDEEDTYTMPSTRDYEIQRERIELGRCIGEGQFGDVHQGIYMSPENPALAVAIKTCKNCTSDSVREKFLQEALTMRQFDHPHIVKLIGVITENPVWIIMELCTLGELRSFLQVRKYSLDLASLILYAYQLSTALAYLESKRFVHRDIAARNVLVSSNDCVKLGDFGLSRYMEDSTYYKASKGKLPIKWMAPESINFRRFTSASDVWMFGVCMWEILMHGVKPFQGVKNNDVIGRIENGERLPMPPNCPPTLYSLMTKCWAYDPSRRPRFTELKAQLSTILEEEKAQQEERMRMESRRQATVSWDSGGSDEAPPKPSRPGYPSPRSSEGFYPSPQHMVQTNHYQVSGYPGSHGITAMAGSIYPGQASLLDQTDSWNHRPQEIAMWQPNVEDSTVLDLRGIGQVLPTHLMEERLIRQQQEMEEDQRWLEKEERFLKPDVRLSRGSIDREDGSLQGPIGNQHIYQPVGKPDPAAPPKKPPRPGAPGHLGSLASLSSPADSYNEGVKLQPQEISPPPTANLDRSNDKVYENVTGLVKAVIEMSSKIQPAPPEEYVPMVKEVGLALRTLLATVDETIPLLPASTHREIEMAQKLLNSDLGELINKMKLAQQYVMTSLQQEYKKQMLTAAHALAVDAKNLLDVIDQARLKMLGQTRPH
Sequence of Dual specificity testis-specific protein kinase 1 (Q15569 whole entry): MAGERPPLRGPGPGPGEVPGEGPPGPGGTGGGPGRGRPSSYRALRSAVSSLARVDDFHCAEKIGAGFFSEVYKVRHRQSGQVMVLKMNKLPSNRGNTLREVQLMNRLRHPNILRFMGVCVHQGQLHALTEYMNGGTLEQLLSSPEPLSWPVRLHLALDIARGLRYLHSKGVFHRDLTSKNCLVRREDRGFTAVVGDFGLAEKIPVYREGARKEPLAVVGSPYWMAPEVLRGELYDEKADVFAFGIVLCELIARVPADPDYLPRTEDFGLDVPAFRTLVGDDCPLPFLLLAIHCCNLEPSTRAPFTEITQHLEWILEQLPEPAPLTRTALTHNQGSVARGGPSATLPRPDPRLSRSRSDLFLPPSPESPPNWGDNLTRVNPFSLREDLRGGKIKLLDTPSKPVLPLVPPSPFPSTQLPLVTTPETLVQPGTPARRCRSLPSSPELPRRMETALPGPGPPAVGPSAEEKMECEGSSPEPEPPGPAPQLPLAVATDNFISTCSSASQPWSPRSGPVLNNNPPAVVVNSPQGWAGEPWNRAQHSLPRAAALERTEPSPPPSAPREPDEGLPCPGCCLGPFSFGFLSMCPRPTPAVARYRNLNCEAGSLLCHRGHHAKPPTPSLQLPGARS

| SMILES | Kd (Focal adhesion kinase 1) | Kd [1] | Kd [2] | Kd [3] | Kd (Ephrin type-A receptor 1) | Kd [4] | Kd [5] | Kd [6] | Kd [7] | Kd [8] | Kd [9] |
| --- | --- | --- | --- | --- | --- | --- | --- | --- | --- | --- | --- |
| Cc1c(Cn2c(C)nc3c(C(=O)O)cc(N4CCOCC4)cc32)cccc1C(F)(F)F [GSK-2636771] | > 30 µM (inactive) | > 30 µM (inactive) | > 30 µM (inactive) | > 30 µM (inactive) | > 30 µM (inactive) | > 30 µM (inactive) | > 30 µM (inactive) | > 30 µM (inactive) | > 30 µM (inactive) | > 30 µM (inactive) | – |
| O=S(=O)(c1cccc2c(O)nccc12)N1CCCNCC1 [HYDROXYFASUDIL] | – | – | – | > 30 µM (inactive) | > 30 µM (inactive) | > 30 µM (inactive) | > 30 µM (inactive) | > 30 µM (inactive) | > 30 µM (inactive) | – | – |
| COc1cccc2cc(-c3nc([C@H]4CC[C@H](C(=O)O)CC4)n4ncnc(N)c34)[nH]c12 [OSI-027] | > 30 µM (inactive) | – | – | – | – | > 30 µM (inactive) | > 30 µM (inactive) | – | > 30 µM (inactive) | > 30 µM (inactive) | > 30 µM (inactive) |
| O=C(Nc1ccc(OC(F)(F)F)cc1)c1sccc1NCc1ccnc2ccccc12 [OSI-930] | > 30 µM (inactive) | > 30 µM (inactive) | > 30 µM (inactive) | > 30 µM (inactive) | > 30 µM (inactive) | > 30 µM (inactive) | > 30 µM (inactive) | > 30 µM (inactive) | > 30 µM (inactive) | > 30 µM (inactive) | – |
| O=C(NC[C@H](O)CO)c1ccncc1Nc1ccc(I)cc1F [PIMASERTIB] | > 30 µM (inactive) | > 30 µM (inactive) | > 30 µM (inactive) | > 30 µM (inactive) | – | > 30 µM (inactive) | > 30 µM (inactive) | > 30 µM (inactive) | 10.4 µM | > 30 µM (inactive) | – |
| O[C@H]1CC[C@H](Nc2ncc3nc(Nc4c(F)cc(F)cc4F)n([C@H]4CCOC4)c3n2)CC1 [TANZISERTIB] | > 30 µM (inactive) | – | > 30 µM (inactive) | > 30 µM (inactive) | > 30 µM (inactive) | > 30 µM (inactive) | > 30 µM (inactive) | – | > 30 µM (inactive) | – | > 30 µM (inactive) |
| Cc1cc(-c2cc(OC(=O)c3ccccc3)ccc2Cl)cc2nnc(Nc3ccc(OCCN4CCCC4)cc3)nc12 [TG100-801] | > 30 µM (inactive) | – | > 30 µM (inactive) | > 30 µM (inactive) | – | – | > 30 µM (inactive) | – | > 30 µM (inactive) | > 30 µM (inactive) | > 30 µM (inactive) |
| NC(=O)c1ccc(N(C(N)=O)c2c(F)cccc2F)nc1-c1ccc(F)cc1F [VX-702] | > 30 µM (inactive) | – | > 30 µM (inactive) | > 30 µM (inactive) | > 30 µM (inactive) | > 30 µM (inactive) | > 30 µM (inactive) | – | > 30 µM (inactive) | > 30 µM (inactive) | > 30 µM (inactive) |
